Test results published in patent US20260232713A1, “PLECOMACROLIDE DERIVATIVES FOR MHC-I NEF DOWNMODULATION” (priority 2022, published 2026).
Like-named read-outs stand apart in the source and are kept apart here.

Experiments:
in vitro = settings: human
Description: (§1) Inhibition of HIV-Nef was measured by assessing its capacity to downmodulate MHC-I HLA-A2 on the surface of primary CD4+ T cells 24-hours after treatment with each compound. V-ATPase inhibition was assessed at the same time point using lysosomal acidification as an indicator of V-ATPase activity. This was measured using a flow cytometric assay that quantified Lysotracker mean fluorescence intensity as previously described (Painter et al., 2020). Cell viability was measured at 24-hour and 72-hour time points using a previously described flow cytometric assay (Painter et al., 2020).
(§2) Anonymized leukocytes isolated by apheresis were obtained from New York Blood Center and peripheral blood mononuclear cells (PBMCs) were isolated by Ficoll-Paque Plus (17144002; GE Healthcare) centrifugation using SepMate tubes (85450; StemCell Technologies) according to the manufacturers protocol. […] Then, 20-24 hours post-PHA activation, 15 mL of R10/PHA medium is removed and replaced with 5 mL of R10+100u/mL Recombinant Human IL-2 (202|L010; R&D Systems). 48 hours after IL-2 stimulation, primary CD4^+ T cells were infected via spinoculation with previously described HIV ΔGPE construct.
(§3) 48 hours after spinoculation, cells were pooled and plated in flat bottom 96-well plate. […] Compounds were thawed at room temperature and diluted in R10 medium to 2× starting concentration.
(§4) All ΔGPE infected cells were collected 24 hours after treatment.
(§5) All Mock cells were collected 72 hours after treatment.
(§6) All statistical analyses were performed using GraphPad Prism software. Curves were generated using GraphPad Prism software using [Inhibitor] vs. response with variable slope (four parameters).

primary CD4+ T cells = test: in vitro; settings: for Viability:Nef (therapeutic window separating Nef IC50 and TC50): ratio TC50 to Nef IC50; for CC50: read-out: Viability (TC50), mock primary CD4+ T cells, 72 hours after treatment
Description: as §1, §2, §3, §4, §5, §6

V-ATPase = molecular target: T1, V-ATPase (Homo sapiens, UniProt P27449); test: Lysosomal acidification (Lysotracker mean fluorescence intensity) as indicator of V-ATPase activity in primary CD4+ T cells; type: cell-based
T1 construct: endogenous in cells; host or cells: primary CD4+ T cells (HIV ΔGPE infected) from donor PBMCs
T1 sequence (P27449 whole entry, looked up): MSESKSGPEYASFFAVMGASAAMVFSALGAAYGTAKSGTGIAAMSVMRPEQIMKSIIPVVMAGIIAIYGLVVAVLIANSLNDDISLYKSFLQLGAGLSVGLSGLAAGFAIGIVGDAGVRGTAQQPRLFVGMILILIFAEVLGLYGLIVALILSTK
Description: as §1, §2, §3, §4, §6

[1] = Lysotracker Red, ΔGPE infected primary CD4+ T cells, 24 hours after treatment, read-out: Lysotracker (V-ATPase IC50, lysosomal neutralization)

Molecule	CC50 (in vitro) [nM]	Viability:Nef (therapeutic window separating Nef IC50 and TC50) (primary CD4+ T cells) [fold]	IC50 (V-ATPase) [nM]	CC50 at 72 h (in vitro) [nM]	IC50 (V-ATPase; [1]) [nM]	CC50 (primary CD4+ T cells) [nM]
C#CCCC(=O)O[C@@H]1C[C@H]([C@@H](C)[C@H](O)[C@H](C)[C@H]2OC(=O)/C(OC)=C/C(C)=C/[C@@H](C)[C@@H](O)[C@@H](C)C/C(C)=C/C=C/[C@@H]2OC)O[C@H](C(C)C)[C@H]1C [Compound S28]	36	1.7	61			
C/C=C/[C@H]1O[C@@](O)([C@@H](C)[C@H](O)[C@H](C)[C@H]2OC(=O)/C(OC)=C/C(C)=C/[C@@H](C)[C@@H](O)[C@@H](CC)[C@@H](O)[C@H](C)C/C(C)=C/C=C/[C@@H]2OC)C[C@@H](OC(C)=O)[C@@H]1C [Compound S50, 23-Acetyl CMF]	6.1	5.8	6.1			
CO/C1=C\C(C)=C\[C@@H](C)[C@@H](O)[C@@H](C)C/C(C)=C/C=C/[C@H](OC)[C@@H]([C@@H](C)[C@@H](O)[C@H](C)[C@@]2(OC)C[C@@H](O)[C@H](C)C(C(C)C)O2)OC1=O (stereo partly drawn) [Compound S4, Bafilomycin A2]	13	1.2	24			
CC[C@H]1OC(=O)[C@H](C)C(=O)[C@H](C)[C@@H](O[C@@H]2O[C@H](C)C[C@H](N(C)C)[C@H]2O)[C@@H](C)C[C@@H](C)C(=O)/C=C/[C@H]1C [Compound S33, Narbomycin, reference compound]				> 1000	> 1000	
CO/C1=C\C(C)=C\[C@@H](C)[C@@H](O)[C@@H](C)C/C(C)=C/C=C/[C@H](OC)[C@@H]([C@@H](C)[C@@H](O)[C@H](C)[C@@]2(O)C[C@@H](OC(=O)c3ccccc3)[C@H](C)[C@@H](C(C)C)O2)OC1=O [Compound S13]	130		140			
CC=CC1OC(O)(C(C)C(O)C(C)C2OC(=O)C(OC)=CC(C)=CC(C)C(O)C(CC)C(O)C(C)CC(C)=CC=CC2OC)CC(OC2CC(O)C(OC(N)=O)C(C)O2)C1C (stereo not drawn) [Compound 1, Concanamycin A, reference compound]	1.3	6.6	1.7			
C/C=C/[C@H]1O[C@@](O)([C@@H](C)[C@H](O)[C@H](C)[C@H]2OC(=O)/C(OC)=C/C(C)=C/[C@@H](C)[C@@H](O)[C@@H](CC)[C@@H](O)[C@H](C)C/C(C)=C/C=C/[C@@H]2OC)C[C@@H](O[C@@H]2C[C@H](OC(C)=O)[C@@H](OC(C)=O)[C@H](C)O2)[C@@H]1C [Compound S48, 3′,4-diacetyl CMC]	1.3	1.8	3.1			
C/C=C/[C@H]1O[C@@H]([C@@H](C)[C@H](O)[C@H](C)[C@H]2OC(=O)/C(OC)=C/C(C)=C/[C@@H](C)[C@@H](O)[C@@H](CC)[C@@H](O)[C@H](C)C/C(C)=C/C=C/[C@@H]2OC)C[C@@H](O[C@@H]2C[C@H](O)[C@@H](O)[C@H](C)O2)[C@@H]1C [Compound S62, 21-Deoxy CMC]	2	1.8	6			
CC[C@H]1OC(=O)[C@H](C)[C@@H](O)[C@@H](C)C[C@@H](C)C(=O)/C=C/[C@H]1C [10-deoxymethynolide, reference compound]		0.39		140	1720	
C=C/C=C/C(=O)O[C@@H]1C[C@](O)([C@@H](C)[C@H](O)[C@H](C)[C@H]2OC(=O)/C(OC)=C/C(C)=C/[C@@H](C)[C@@H](O)[C@@H](C)C/C(C)=C/C=C/[C@@H]2OC)O[C@H](C(C)C)[C@H]1C [Compound S12]	22	1.4	24			
C=CC(C)C(OC(=O)[C@@H](C)[C@H](O)[C@H](C)[C@H]1OC(=O)/C(OC)=C/C(C)=C/[C@@H](C)[C@@H](O)[C@@H](C)C/C(C)=C/C=C/[C@@H]1OC)C(C)C (stereo partly drawn) [Compound S8]	520		> 1000			
C/C=C/[C@H]1O[C@@](O)([C@@H](C)[C@H](O)[C@H](C)[C@H]2OC(=O)/C(OC)=C/C(C)=C/[C@@H](C)[C@@H](O)[C@@H](CC)[C@@H](O)[C@H](C)C/C(C)=C/C=C/[C@@H]2OC)C[C@@H](O[C@@H]2C[C@H](OC(=O)CCCC)[C@@H](OC(N)=O)[C@H](C)O2)[C@@H]1C [Compound 8, 3-pentanoate Concanamycin A]	3.5	4.8	11			
CCC1OC(=O)C(C)C(OC2OC(C)CC(N(C)C)C2O)C(C)CC(C)C(=O)C=CC1C (stereo not drawn) [Compound S30, YC-17, reference compound]				> 1000	> 1000	
COC1=CC(C)=CC(C)C(O)C(C)CC(C)=CC=CC(OC)C(C(C)C(O)C(C)C2(O)CC(OC3OC(C)C(O)C(O)C3OC)C(C)C(C(C)C)O2)OC1=O (stereo not drawn) [Compound S14, Leucanicidin, reference compound]	1.4	1.3	2.5			
C/C=C/CC(=O)O[C@@H]1C[C@](O)([C@@H](C)[C@H](O)[C@H](C)[C@H]2OC(=O)/C(OC)=C/C(C)=C/[C@@H](C)[C@@H](O)[C@@H](C)C/C(C)=C/C=C/[C@@H]2OC)OC(C(C)C)[C@H]1C (stereo partly drawn) [Compound S29]	39	1.6	47			
CCCCCCCCC(=O)O[C@@H]1C[C@](O)([C@@H](C)[C@H](O)[C@H](C)[C@H]2OC(=O)/C(OC)=C/C(C)=C/[C@@H](C)[C@@H](O)[C@@H](C)C/C(C)=C/C=C/[C@@H]2OC)O[C@H](C(C)C)[C@H]1C [Compound S11]	140	1.1	150			
C/C=C/[C@H]1O[C@@](O)([C@@H](C)[C@H](O)[C@H](C)[C@H]2OC(=O)/C(OC)=C/C(C)=C/[C@@H](C)[C@@H](O)[C@@H](CC)[C@@H](OC(C)=O)[C@H](C)C/C(C)=C/C=C/[C@@H]2OC)C[C@@H](O[C@@H]2C[C@H](OC(C)=O)[C@@H](OC(C)=O)[C@H](C)O2)[C@@H]1C [Compound S49, 3′,4′,9-triaceyl CMC]	4.5	1.8	11			
CC[C@H]1OC(=O)[C@H](C)[C@@H](O[C@H]2C[C@@](C)(OC)[C@@H](O)[C@H](C)O2)[C@H](C)[C@@H](O[C@@H]2O[C@H](C)C[C@H](N(C)C)[C@H]2O)[C@](C)(O)C[C@@H](C)C(=O)[C@H](C)[C@@H](O)[C@H]1C [Compound S32, Erythromycin B, reference compound]				> 1000	> 1000	
CC1=CC[C@H]2O[C@]1(C)O[C@H]([C@H](C)/C=C(C)/C=C/C(O)=C1/C(=O)CNC1=O)[C@H]2C [Tirandamycin C, reference compound]	> 1000		> 1000			
C/C=C/[C@H]1O[C@@](O)([C@@H](C)[C@H](O)[C@H](C)[C@H]2OC(=O)/C(OC)=C/C(C)=C/[C@@H](C)[C@@H](O)[C@@H](CC)[C@@H](O)[C@H](C)C/C(C)=C/C=C/[C@@H]2OC)C[C@@H](O)[C@@H]1C [Compound 6, Concanamycin F]	2.9		5.8			
C/C=C/[C@H]1O[C@@](O)([C@@H](C)[C@H](O)[C@H](C)[C@H]2OC(=O)/C(OC)=C/C(C)=C/[C@@H](C)[C@@H](O)[C@@H](CC)[C@@H](O)[C@H](C)C/C(C)=C/C=C/[C@@H]2OC)C[C@@H](O[C@H]2C[C@@H](O)[C@H](O)[C@@H](C)O2)[C@@H]1C [Compound 5, concanamycin C, reference compound]		2.3			3.7	1.3
COc1cc2c(O)c3c(c(-c4ccc5c(c4)OCO5)c2cc1OC)C(=O)OC3 [Compound S1, Diphyllin, reference compound]				> 1000	> 1000	
C/C=C/[C@H]1O[C@@](O)([C@@H](C)[C@H](O)[C@H](C)[C@H]2OC(=O)/C(OC)=C/C(C)=C/[C@@H](C)[C@@H](O)[C@@H](C)[C@@H](O)[C@H](C)C/C(C)=C/C=C/[C@@H]2OC)C[C@@H](O)[C@@H]1C [Compound 7, Concanamycin X]	14		38			
23-OH-tylactone [Compound S46, reference compound]					> 1000	> 1000
Des-tylactone [Compound S47, reference compound]					> 1000	> 1000
CO[C@H]1/C=C/O[C@@]2(C)Oc3c(C)c(O)c4c(O)c(c(/C=N/N5CCN(C)CC5)c(O)c4c3C2=O)NC(=O)/C(C)=C\C=C\[C@H](C)[C@H](O)[C@@H](C)[C@@H](O)[C@@H](C)[C@H](OC(C)=O)[C@@H]1C [Compound S26, Rifampicin, reference compound]				> 1000	> 1000	
